Measurements from patent US10792284B2, “Synergistic cancer treatment” (Memorial Sloan Kettering Cancer Center, priority 2015, dated 2020).
Entries after “also recorded” stand apart in the source; their conditions may differ.

What was measured:
[1] = tested on: BRAF and KRAS-mutant cancers of multiple lineages; conditions: GDSC dataset; BRAF-mutant compared with KRAS-mutant tumor cells; cited from earlier work
[2] = tested on: KRAS-mutant lung cancer cell lines; test: Clonogenic assay; assay type: cell-based, human; conditions: for sensitization to trametinib (MEK inhibition) in combination: combined with trametinib, KRAS-mutant lung cancer cell lines
Procedure: All experiments were performed at least three times. Representative experiments are shown.

Row | Compound | sensitivity to MEK inhibitor (IC50), BRAF-mutant versus KRAS-mutant tumor cells [1] | sensitization to trametinib (MEK inhibition) in combination [2] | other results
1 | O=C(NOC[C@H](O)CO)c1ccc(F)c(F)c1Nc1ccc(I)cc1F [PD0325901] | significantly more sensitive |  | 
2 | COCC(=O)NC/C=C/c1ccc2ncnc(Nc3ccc(Oc4ccc(C)nc4)c(C)c3)c2c1 [CP724714] |  |  | synergy when combined with Trametinib ([2]; H23 cells, combined with Trametinib): no synergy
3 | O=C(Nc1ccc2[nH]nc(-c3ccncc3)c2c1)[C@@H]1CCN(CC(=O)N2CCN(c3ccc(-c4ncccn4)cc3)CC2)C1 [SCH772984] |  |  | effect of co-treatment on antiproliferative effects of Trametinib ([2]; co-treatment with Trametinib compared with Trametinib alone): enhances the antiproliferative effects of trametinib
4 | AZD4547 |  | comparable effects; also recorded: confer sensitivity to MEK inhibition | 
5 | COc1cc(F)c(F)c(Nc2ccc(I)cc2F)c1NS(=O)(=O)C1(C[C@H](O)CO)CC1 [RDEA119] | significantly more sensitive |  | 
6 | CCN1CCN(c2ccc(Nc3cc(N(C)C(=O)Nc4c(Cl)c(OC)cc(OC)c4Cl)ncn3)cc2)CC1 [BGJ398] |  | comparable effects; also recorded: confer sensitivity to MEK inhibition | 
